According to patent EP4674852A1, “PREPARATION METHOD FOR AND USE OF DIHYDROTHIENOPYRIMIDINE DERIVATIVE” (Innovstone Therapeutics Limited, priority 2023, dated 2024):

Key:
PDE4D2 = molecular target: T1, PDE4D2 (Homo sapiens, UniProt Q08499); test: In vitro PDE4D2 enzyme inhibitory activity (AMP-Glo), reported as PDE4D2/PDE4B2 selectivity; format: biochemical; details: Ratio of IC50 value of PDE4D2 enzyme inhibition/IC50 value of PDE4B2 enzyme inhibition
T1 construct: purchased BPS bioscience
Protocol: Assay 1: In vitro evaluation of inhibitory activities of the compounds against PDE4B2 and PDE4D2 enzymes 1. Assay materials and instruments:
2. Assay procedure: • 2.1 Compound preparation and treatment • 2.1.1 Preparing stock solutions of compounds in DMSO: Compound powders were dissolved in 100% DMSO to produce 10 mM stock solutions, and oscillated in a shaker until the compounds were completely dissolved. • 2.1.2 Storing stock solutions of compounds in DMSO: Stock solutions of compounds in DMSO were stored in a desiccator at room temperature. • 2.1.3 Preparing working stock solutions: a) A solution of Roflumilast (reference compound) in DMSO was diluted to 60 µM, and then serially diluted 4-fold into 10 concentration gradients. B) The solutions of the test compounds in DMSO were diluted to 200 µM, and then serially diluted 3-fold. C) A 200X positive control (60 µM Roflumilast) and a 200X vehicle control (100% DMSO) were prepared. D) The assay plate was centrifuged at 1000 rpm for 1 minute. • 2.2 Compound testing • (1) 20 nL of compound dilution solutions were transferred with Echo 550 into each well of the assay plate. • (2) The assay plate was sealed and centrifuged at 1000 rpm for 1 minute. • (3) 2X PDE4B2/PDE4D2 was prepared in an ice-cold PDE assay buffer. • (4) 2 µL of 2X PDE4B2/PDE4D2 was added to each well of the assay plate prepared in step 2. • (5) The assay plate was sealed and allowed to equilibrate at room temperature for 10 minutes. • (6) 2X Cyclic-3',5'-AMP was prepared in a PDE assay buffer. • 7) 2µL of 2X Cyclic-3',S'-AMP (prepared in step 6) was added to each well of the assay plate (prepared in step 5) to initiate the reaction. The plate was incubated at room temperature for 60 minutes. • 8) 4µL AMP-Glo Reagent I was added, and the plate was incubated at room temperature for 60 minutes. • 9) 8µL AMP detection reagent was added. The plate was incubated at room temperature for 60 minutes. • 10) The RLU signal was read on an Envision 2105 plate reader.

[1] = tested on: LPS-induced TNF-α secretion from human PBMC; test: Inhibition of LPS-induced TNF-α secretion from human PBMC; format: cell-based; details: hPBMC, LPS 10 ng/mL, 24 hours
Protocol: Assay 3: Test of the inhibition of compounds on LPS-induced TNF-α secretion from human PBMC
Frozen hPBMC cell stock solution was rapidly thawed in a 37°C water bath. The cells were transferred to complete medium (RPMI 1640+10% FBS+1% P/S). The suspension was centrifuged at 1000 rpm for 5 minutes. The supernatant was discarded, and the cells were resuspended in 1 mL complete medium (RPMI 1640 + 10% FBS + 1% P/S). After gentle pipetting to mix, the cells were counted using trypan blue staining. Cells were seeded into a 96-well cell culture plate at 5×10^4 cells/well, with 100 µL/well of complete medium. Test compounds were prepared at 4×the final concentration and added to the cells at 50 µL/well, followed by a 30-minute pre-incubation. Control wells without compound were simultaneously set up. LPS was prepared as a 4×solution to achieve a final stimulation concentration of 10 ng/mL and added to the cells at 50µL/well. Control wells without LPS were simultaneously set up. The incubation of cells was continued and 10% of supernatant was collected for detection after 24 hours. The collected supernatant was detected according to the Human TNF-α kit of R&D Company (VAL105G). The inhibitory activities of the compounds of the present invention on LPS-induced TNF-α secretion from human PBMC were determined according to the above method. […]

T1 sequence (Q08499 303-809 limits assumed): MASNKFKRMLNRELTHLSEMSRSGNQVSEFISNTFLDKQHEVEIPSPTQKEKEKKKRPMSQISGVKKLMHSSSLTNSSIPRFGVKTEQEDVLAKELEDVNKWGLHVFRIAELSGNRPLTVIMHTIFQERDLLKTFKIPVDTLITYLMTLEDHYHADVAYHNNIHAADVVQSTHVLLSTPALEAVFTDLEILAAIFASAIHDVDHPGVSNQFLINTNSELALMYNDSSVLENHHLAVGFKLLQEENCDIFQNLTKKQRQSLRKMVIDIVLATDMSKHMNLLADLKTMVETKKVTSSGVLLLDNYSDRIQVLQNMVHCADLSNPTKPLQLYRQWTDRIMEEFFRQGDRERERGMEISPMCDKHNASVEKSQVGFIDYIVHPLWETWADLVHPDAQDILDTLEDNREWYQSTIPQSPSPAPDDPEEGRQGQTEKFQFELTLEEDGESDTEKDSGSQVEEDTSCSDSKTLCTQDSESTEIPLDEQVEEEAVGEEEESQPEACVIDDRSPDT

Row | Compound | PDE4D2/PDE4B2 selectivity (PDE4D2) | IC50 [1] [nM]
1 | COC1(c2ccc(Cl)cc2)CN(c2nc3c(c(NC4CCOCC4)n2)[S+]([O-])CC3)C1 (racemic) [Compound 88, (R/S)-2-(3-(4-chlorophenyl)-3-methoxyazetidin-1-yl)-4-((tetrahydro-2H-pyran-4-yl)amino)-6,7-dihydrothieno[3,2-d]pyrimidine 5-oxide] | B (2<B≤5) | 
2 | COC1(c2ccc(OC(F)F)cc2)CN(c2nc3c(c(NC4(CO)CCC4)n2)[S+]([O-])CC3)C1 (racemic) [Compound 105, (R/S)-2-(3-(4-(difluoromethoxy)phenyl)-3-methoxyazetidin-1-yl)-4-((1-(hydroxymethyl)cyclobutyl)amino)-6,7-dihydrothieno[3,2-d]pyrimidine 5-oxide] | B (2<B≤5) | 
3 | COc1cc(C2(O)CN(c3nc4c(c(NC5(CO)CCC5)n3)[S+]([O-])CC4)C2)ccc1Cl (racemic) [Compound 3, (R/S)-2-(3-(4-chloro-3-methoxyphenyl)-3-hydroxyazetidin-1-yl)-4-((1-(hydroxymethyl)cyclobutyl)amino)-6,7-dihydrothieno[3,2-d]pyrimidine 5-oxide] | B (2<B≤5) | 
4 | COC1(c2ccc(OCC3CC3)cc2)CN(c2nc3c(c(NC4(CO)CCC4)n2)[S+]([O-])CC3)C1 (racemic) [Compound 106, (R/S)-2-(3-(4-(cyclopropylmethoxy)phenyl)-3-methoxyazetidin-1-yl)-4-((1-(hydroxymethyl)cyclobutyl)amino)-6,7-dihydrothieno[3,2-d]pyrimidine 5-oxide] | B (2<B≤5) | 
5 | COC1(c2ccc(Cl)c(F)c2)CN(c2nc3c(c(NC4CCOCC4)n2)[S+]([O-])CC3)C1 (racemic) [Compound 86, (R/S)-2-(3-(4-chloro-3-fluorophenyl)-3-methoxyazetidin-1-yl)-4-((tetrahydro-2H-pyran-4-yl)amino)-6,7-dihydrothieno[3,2-d]pyrimidine 5-oxide] | B (2<B≤5) | 
6 | [2H]C([2H])([2H])OC1(c2ccc(Cl)cc2)CN(c2nc3c(c(NC4(CO)CCC4)n2)[S+]([O-])CC3)C1 (racemic) [Compound 92, (R/S)-2-(3-(4-chlorophenyl)-3-(methoxy-d3)azetidin-1-yl)-4-((1-(hydroxymethyl)cyclobutyl)amino)-6,7-dihydrothieno[3,2-d]pyrimidine 5-oxide] | A (5<A≤10) | 
7 | [2H]C([2H])([2H])OC1(c2ccc(Cl)cc2)CN(c2nc3c(c(NC4CCOCC4)n2)[S+]([O-])CC3)C1 (racemic) [Compound 94, (R/S)-2-(3-(4-chlorophenyl)-3-(methoxy-d3)azetidin-1-yl)-4-((tetrahydro-2H-pyran-4-yl)amino)-6,7-dihydrothieno[3,2-d]pyrimidine 5-oxide] | B (2<B≤5) | 
8 | COC1(c2ccc(N3CCCC3)cc2)CN(c2nc3c(c(NC4(CO)CCC4)n2)[S+]([O-])CC3)C1 (racemic) [Compound 107, (R/S)-4-((1-(hydroxymethyl)cyclobutyl)amino)-2-(3-methoxy-3-(4-(pyrrolidin-1-yl)phenyl)azetidin-1-yl)-6,7-dihydrothieno[3,2-d]pyrimidine 5-oxide] | B (2<B≤5) | 
9 | COC1(c2ccc(Cl)cc2)CN(c2nc3c(c(NC4(CO)CCC4)n2)[S+]([O-])CC3)C1 (racemic) [Compound 83, (R/S)-2-(3-(4-chlorophenyl)-3-methoxyazetidin-1-yl)-4-((1-(hydroxymethyl)cyclobutyl)amino)-6,7-dihydrothieno[3,2-d]pyrimidine 5-oxide] | A (5<A≤10) | 1.35
10 | [O-][S+]1CCc2nc(N3CC=C(c4ccc(OC(F)F)cc4)C3)nc(NC3(CO)CCC3)c21 (racemic) [Compound 14, (R/S)-2-(3-(4-(difluoromethoxy)phenyl)-2,5-dihydro-1H-pyrrol-1-yl)-4-((1-(hydroxymethyl)cyclobutyl)amino)-6,7-dihydrothieno[3,2-d]pyrimidine 5-oxide] | B (2<B≤5) | 
11 | COC1(c2ccc(Cl)c(F)c2)CN(c2nc3c(c(NC4(CO)CCC4)n2)[S+]([O-])CC3)C1 (racemic) [Compound 82, (R/S)-2-(3-(4-chloro-3-fluorophenyl)-3-methoxyazetidin-1-yl)-4-((1-(hydroxymethyl)cyclobutyl)amino)-6,7-dihydrothieno[3,2-d]pyrimidine 5-oxide] | A (5<A≤10) | 
12 | COc1ccc(C2(OC)CN(c3nc4c(c(NC5CCOCC5)n3)[S+]([O-])CC4)C2)cc1 (racemic) [Compound 108, (R/S)-2-(3-methoxy-3-(4-methoxyphenyl)azetidin-1-yl)-4-((tetrahydro-2H-pyran-4-yl)amino)-6,7-dihydrothieno[3,2-d]pyrimidine 5-oxide] | B (2<B≤5) | 
13 | [O-][S+]1CCc2nc(N3Cc4ccc(OC(F)F)cc4C3)nc(NC3(CO)CCC3)c21 (racemic) [Compound 87, (R/S)-2-(5-(difluoromethoxy)isoindolin-2-yl)-4-((1-(hydroxymethyl)cyclobutyl)amino)-6,7-dihydrothieno[3,2-d]pyrimidine 5-oxide] | B (2<B≤5) | 
14 | [O-][S+]1CCc2nc(N3CCC(c4ncc(Cl)cn4)CC3)nc(NC3(CO)CCC3)c21 (stereo not shown) [Control 1, reference compound] | C (C≤2) | 146
